Laboratory results published in publication PMC4383003, “Transfer hydrogenation catalysis in cells as a new approach to anticancer drug design” (Nature Communications, 2015).
Values joined by “and” are separate entries in the source; they are usually repeats but may differ in a detail not shown here. Equal entries are not always repeated.

Columns and labels:
calf thymus DNA = assay: Interaction with calf thymus DNA (ethanol precipitation, ICP-MS of Ru); type: binding
Experimental: Interaction with calf thymus DNA
Complex 2 was chosen as representative of the series. A stock solution of complex 2 (0.7 mM in 5 % acetonitrile/water) was prepared and aliquots of 66 μL were added to a solution of CT-DNA (final ratio 1:3 complex: base pairs-DNA) in water, 2 mM cacodylate buffer and 2 mM NaCl. The reaction mixture was incubated at 310 K, and aliquots of 300 μL were taken at different intervals during a period of 27 h. The DNA was then precipitated by addition of ethanol (700 μL, final concentration 70% v/v). Ru complexes which are strongly bound to CT-DNA will precipitate together with the DNA upon addition of ethanol, and, therefore the ruthenium concentration in the supernatant should decrease. However, no changes in the Ru concentration were detected by ICP-MS showing that the interaction between the complex 2 and DNA is weak (t = 0 h / 64.2 ± 0.7 µM, t = 24 h/ 65.1 ± 0 .3 µM free Ru). In contrast complex 8

[1] = tested on: A2780 ovarian cancer cells; assay: Ruthenium distribution in cancer cells (cell fractionation, ICP-MS); type: cell-based, human
Experimental: Cell pellets were obtained as described above, and were fractionated using the Fraction PREP kit from BioVision according to the supplier’s instructions. Each sample was digested overnight in concentrated nitric acid (73%) and the amount of Ru taken up by the cells was determined by ICP–MS. These experiments were all carried out in triplicate and the s.d. were calculated.
Supplementary Table 9: Cellular distribution of complex 2 (as % Ru) in A2780 ovarian cancer cells when co-administered with different concentrations of sodium formate (0 and 2 mM). All the experiments were performed as duplicates of triplicates in independent experiments and the error bars were calculated as the standard deviation from the mean.
Formate Cytosol Membrane Cytoskeleton Nuclei

[2] = tested on: A2780 ovarian cancer cells; assay: Cell viability on co-administration of Ru complexes (1/3 x IC50) with formate or acetate; type: cell-based, human; conditions: for Cell viability percentages / Cell viability: A2780, complex 1/3 x IC50, 24 h
Experimental: Cell viability assays were carried out with complexes 1–8 in A2780 ovarian cancer cells. These experiments were carried out as described above with the following modifications: a fixed concentration of each Ru complex equal to 1/3 × IC50 was used in co-administration with three different concentrations of sodium formate or sodium acetate (0.5, 1.0 and 2.0 mM). To prepare the stock solution of the drug, the complex was dissolved in 5% dimethylsulfoxide and diluted in a 1:1 mixture of 0.9% saline:cell culture medium. This stock was further diluted using RPMI-1640 until working concentrations were achieved. Separately, stock solutions of sodium formate or sodium acetate were prepared in saline. The complex and formate were added to each well independently, but within 5 min of each other.
Supplementary Table 7: Percent cell viability of A2780 ovarian cancer cells exposed to equipotent concentrations of ruthenium complexes 1-3 and 5-8 (1/3 x […]
The experiments included 48 h of pre-incubation and 72 h of drug recovery, both in drug-free medium at 310 K in a 5% CO2 humidified atmosphere. All the experiments were performed as duplicates of triplicates in independent experiments and the error bars were calculated as the standard deviation from the mean.
Supplementary Table 11: Cell viability (%) of A2780 ovarian cancer cells exposed […]
administered with different concentrations of sodium acetate (0, 0.5, 1 and 2 mM).
The experiments involved 48 h of pre-incubation and 72 h of drug recovery, both in […]
Cell viability percentages (%)
Complex Acetate concentration (mM)

A2780 cells = assay: Mitochondrial membrane assay (JC-10 flow cytometry); type: cell-based, human; conditions: A2780, complex 2 and sodium formate, 24 h
Experimental: Analysis of the changes of mitochondrial potential in A2780 cells after exposure to complex 2 and sodium formate was carried out using the Abcam, JC-10 Mitochondrial Membrane Potential Assay kit according to the manufacturer’s instructions. Briefly, 1.0 × 10^6 cells were seeded in six-well plates and left to incubate for 24 h in drug-free medium at 310 K in a humidified atmosphere. […] Supernatants were removed by suction and each well was washed with PBS before detaching the cells using trypsin-EDTA. Staining of the samples was done in flow cytometry tubes protected from light, incubating for 30 min at room temperature. Samples were immediately analysed on a Beckton Dickinson FAC Scan with fluorescence detection. Data were processed using FlowJo software. This experiment included carbonyl cyanide m-chlorophenyl hydrazine as positive control.

[3] = tested on: A2780 ovarian cancer cells; assay: IC50 of complex 2 on co-administration with formate; type: cell-based, human; conditions: A2780, formate 0 mM
Experimental: The antiproliferative activity towards A2780 ovarian cancer cells of complex 2 when co-administered with 2 mM sodium formate was determined. These experiments were performed as described above, using a fixed concentration of formate and variable concentrations of the Ru complex. The SRB assay was used to determine cell viability. IC50 values were determined as duplicates of triplicates in two independent sets of experiments and their s.d. were calculated.
Supplementary Table 8: Antiproliferative activity of complex 2 in A2780 ovarian cancer cells when co-administered with different concentrations of sodium formate (0, 0.5, 1 and 2 mM) and amount of Ru accumulated by the cells. All the experiments were performed as duplicates of triplicates in independent experiments and the error bars were calculated as the standard deviation from the mean.
Formate concentration (mM)

[4] = tested on: A2780 ovarian cancer cells; assay: Ruthenium accumulation in cancer cells (ICP-MS); type: cell-based, human
Experimental: Briefly, 1.5 × 10^6 cells per well were seeded on a six-well plate. […] After this time, cells were washed, treated with trypsin-EDTA, counted and cell pellets were collected. Each pellet was digested overnight in concentrated nitric acid (73%) at 353 K; the resulting solutions were diluted using double-distilled water to give a final concentration of 5% HNO3 and the amount of Ru taken up by the cells was determined by ICP–MS. […]
Supplementary Table 3: Antiproliferative activity of complexes 1-8 in A2780 ovarian cancer cells and their cellular accumulation (expressed as ng Ru per million cells).
The latter experiments were carried out using equipotent concentrations of the […]
experiments were performed as duplicates of triplicates in independent experiments and the error bars were calculated as the standard deviation from the mean. […]

[5] = A2780, complex 2 4.5 μM, presence and absence of formate (2 mM)

Cc1ccc(C(C)C)cc1.Cc1ccc(S(=O)(=O)[N-]CCN)cc1.[Cl-].[Ru+2] [Complex 2, [(p-cym)Ru(TsEn)Cl]]
free Ru in supernatant (calf thymus DNA; CT-DNA, 1:3 complex:base pairs, 310 K, t = 0 h): 64.2 ± 0.7 µM | binding to calf thymus DNA (calf thymus DNA; ICP-MS of Ru, up to 27 h at 310 K, 1:3 complex:DNA base pairs, 2 mM cacodylate pH 7.4, 2 mM NaCl): weak and no binding | Ru in cytoskeletal fraction ([1]; A2780, complex 2 4.5 μM): little Ru | Ru in cytosolic fraction [1, 5]: 51% | Ru in membrane and organelle fraction [1, 5]: 38% | Ru in nuclear fraction [1, 5]: 9% | %Ru Cytoskeleton ([1]; A2780, formate 0 mM): 1.9 ± 0.5% | %Ru Cytosol ([1]; A2780, formate 0 mM): 50.5 ± 2.4% | %Ru Membrane ([1]; A2780, formate 0 mM): 41.6 ± 1.4% | %Ru Nuclei ([1]; A2780, formate 0 mM): 6.0 ± 2.8% | %Ru Cytoskeleton ([1]; A2780, formate 2 mM): 1.0 ± 0.8% | %Ru Cytosol ([1]; A2780, formate 2 mM): 52.0 ± 3.0% | %Ru Membrane ([1]; A2780, formate 2 mM): 35.7 ± 7.2% | %Ru Nuclei ([1]; A2780, formate 2 mM): 11.3 ± 4.5% | Cell viability percentages ([2]; acetate 0 mM): 70.8 ± 0.6% | Cell viability percentages ([2]; acetate 0.5 mM): 69.4 ± 0.9% | Cell viability percentages ([2]; acetate 1 mM): 68.9 ± 0.3% | Cell viability percentages ([2]; acetate 2 mM): 67.1 ± 0.6% | Cell viability ([2]; formate 0.5 mM): 49.7 ± 0.8% | Cell viability ([2]; formate 1 mM): 38.2 ± 0.6% | Cell viability ([2]; formate 2 mM): 1.5 ± 0.1% and ~1% | decrease in cell survival ([2]; A2780, formate increased from 0 to 2 mM): ca. 50 fold | changes in mitochondrial membrane potential (A2780 cells): No changes in the mitochondrial membrane potential were observed | IC50 [3]: 13.6 ± 0.6 µM | Cell Ru ([4]; A2780, 1/3 x IC50, 24 h drug exposure, no recovery time): 0.15 ± 0.04 ng x 106 cells | Cell accum. ([4]; A2780, 24 h, 1/3 x IC50): 0.15 ng Ru/10^6 cells | dependence of cellular accumulation of ruthenium on amount of formate added ([4]; A2780, complex 2 4.5 μM): no significant dependence | Cell Ru ([4]; A2780, complex 2, formate 0 mM): 0.15 ± 0.03 ng x 106 cells | Cell Ru ([4]; A2780, complex 2, formate 0.5 mM): 0.145 ± 0.009 ng x 106 cells | Cell Ru ([4]; A2780, complex 2, formate 1 mM): 0.129 ± 0.005 ng x 106 cells | Cell Ru ([4]; A2780, complex 2, formate 2 mM): 0.13 ± 0.02 ng x 106 cells
